Literature values as cited in patent US20250326722A1 (SHANGHAI HANSOH BIOMEDICAL CO., LTD., priority 2022, published 2025).

Test system: LDL-C
Conditions: combined with a statin; cited from earlier work

## O=C1[C@H](CC[C@H](O)c2ccc(F)cc2)[C@@H](c2ccc(O)cc2)N1c1ccc(F)cc1 [Ezetimibe]
  LDL-C reduction: 15-20%
